Data from patent publication US8853221B2, “Compounds of estrogen-related receptor modulators and the uses thereof” (Guangzhou Institute of Biomedicine & Health, Chinese …, priority 2008, dated 2014).

Key:
GAL-hERRα = molecular target: T1, GAL-hERRα (Homo sapiens, UniProt P11474); assay: GAL4-ERRα ligand binding domain luciferase reporter activation assay in 293 FT cells co-transfected with CMV-PGC-1α; type: cell-based; conditions: in the presence of CMV-PGC-1α, approximately 24 hours, increasing concentrations (FIG. 1)
T1 construct: expressed in transfected cells; host or cells: 293 FT cells
T1 sequence (P11474 193-421 limits assumed): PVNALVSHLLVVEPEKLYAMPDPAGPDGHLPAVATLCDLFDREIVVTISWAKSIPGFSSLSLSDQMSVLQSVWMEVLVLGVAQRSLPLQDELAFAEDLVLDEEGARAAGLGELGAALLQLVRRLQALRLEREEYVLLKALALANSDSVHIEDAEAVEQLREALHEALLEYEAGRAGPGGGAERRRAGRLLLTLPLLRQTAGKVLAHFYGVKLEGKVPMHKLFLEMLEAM
From the text: To test the effect of the compounds on ERR and other nuclear hormone receptors, 293 FT cells were transiently transfected with expression vectors for the receptors along with appropriate reporter constructs according to methods known in the art. Suitable reporter gene constructs are well known to skilled workers in the fields of biochemistry and molecular biology. Other vectors known in the art can be used in the methods of the present invention. GAL4 fusions containing receptor ligand binding domain fragments were constructed by fusing human ERRα, human ERRβ and murine ERRγ ligand binding domain sequences to the C-terminal end of the yeast GAL4 DNA binding domain (amino acids 1-147 accession X85976) to form the expression vectors GAL-hERRα, GAL-L-hERRβ and Gal-mERRγ, respectively. pGAL is a control containing the yeast GAL4 DNA binding domain without receptor sequences. CMV-PGC-1α contains and expressed the PGC-1α coding sequences derived from PGC-1α (accession NM--008904). 293 FT cells for the activation assays were grown in Dulbecco's modified Eagle's medium supplemented with 10% resin charcoal-stripped fetal bovine serum at 37° C. in 5% CO2. One day prior to transfection, cells were plated to 50-80% confluence using phenol red free DMEM-FBS. The cells were transiently transfected by lipofection but other methods of transfection of DNA into cells can be utilized without deviating from the spirit of the invention. Luciferase reporter construct UASgx4-TK-Luc and cytomegalovirus-driven expression vector p-GAL, GAL-hERRα, GAL-L-hERRβ or Gal-mERRγ were added with CMV-PGC-1α. The cells were treated for approximately 24 hours with phenol red free DMEM-FBS containing 0.01% DMSO (control) or 0.01% DMSO with increasing concentrations of DK compounds. […] (FIG. 1).

[1] = tested on: PGC1α-promoter reporter gene driven by ERRα; assay: PGC1α-promoter luciferase reporter gene assay driven by ERRα in HeLa cells; type: cell-based, human; conditions: 10 uM, approximately 24 hours (FIG. 2)
From the text: (§1) HeLa were transiently transfected with the pGL3-promoter (Promega) derivative pGL3-PGC1α-promoter or PDK4-Promega and expression vector for ERRα. The Renilla-Luciferase pRL-CMV Vector (Promega) was included as a control for transfection efficiency. The full length human ERRα was cloned into the expression vector pCMV. The pGL3-PGC1α-promoter or PDK4-promoter was generated by cloning an insert derived from a PCR reaction using human genomic DNA as template and primers based on the 2.6 kbp upstream sequence of the PGC1α transcriptional start site.
(§2) HeLa cells for the activation assays were grown in Dulbecco's modified Eagle's medium supplemented with 10% fetal bovine serum at 37° C. in 5% CO2. One day prior to transfection, cells were plated to 50-80% confluence using DMEM-FBS. The cells were transiently transfected by lipofection but other methods of transfection of DNA into cells can be utilized without deviating from the spirit of the invention. Luciferase reporter construct pGL3-PGC1α-promoter or PDK4-promoter and cytomegalovirus-driven expression vector pCMV or pCMV-hERRα were added. The cells were treated for approximately 24 hours with DMEM-FBS containing 0.01% DMSO (control) or 0.01% DMSO with 10 uM DK45 compound.

[2] = tested on: PDK4-promoter reporter gene driven by ERRα; assay: PDK4-promoter luciferase reporter gene assay driven by ERRα in HeLa cells; type: cell-based, human; conditions: 10 uM, approximately 24 hours (FIG. 2)
From the text: as §1, §2

high-fat-diet mice [3] = assay: Oral glucose tolerance test in high-fat-diet mice; type: in vivo, C57BL/J6 mice; conditions: 5 mg/kg/day by gavage for two weeks, fasted 5 h (FIG. 3)
Method: (§3) Seven weeks old male C57BL/J6 mice were either fed chow diet or a high-fat-diet with 60% calories from lard for 10 weeks. Compounds were administered to animals by gavage for two weeks at different doses. Four groups of animals (n=5) were administered with either vehicle, 5 mg/kg/day rosiglitazone, or 5 mg/kg/day DK45. Animals were fasted for 5 h, and then orally fed glucose. Blood samples were withdrawn at time 0, 15, 30, 60 and 120 min. Blood glucose level was measured by monitor (Accu-chek Advantage, Roche). The changes in blood glucose level were plotted against time and the areas under the curve were calculated for the different groups.

high-fat-diet mice [4] = assay: Non-fasting blood glucose level in high-fat-diet mice; type: in vivo, C57BL/J6 mice; conditions: 5 mg/kg/day by gavage for two weeks, non-fasting (FIG. 4)
high-fat-diet mice [5] = assay: Insulin resistance (insulin tolerance) test in high-fat-diet mice; type: in vivo, C57BL/J6 mice; conditions: 5 mg/kg/day by gavage, fasted 5 h, insulin 0.75 IU/kg (FIG. 5)
Method: as §3
In addition, insullin resistance test was administered. Animals were fasted for 5 h, and then injected insulin (0.75 IU/kg). Blood samples were withdrawn at time 0, 15, 30, 60 and 120 min. Blood glucose level was measured by monitor (Accu-chek Advantage, Roche). The changes in blood glucose level were plotted against time and the areas under the curve were calculated for the different groups.
(§4) The blood insulin levels of fasting and non-fasting treatments also indicate that DK45 at 5 mg/kg/day reduced the blood insulin levels of non-fasting treatments (FIG. 6).

high-fat-diet mice [6] = assay: Blood insulin level in high-fat-diet mice; type: in vivo, C57BL/J6 mice; conditions: 5 mg/kg/day by gavage, non-fasting (FIG. 6)
Method: as §3, §4

high-fat-diet mice [7] = assay: Serum free fatty acid, cholesterol and triglyceride levels in high-fat-diet mice; type: in vivo, C57BL/J6 mice; conditions: 5 mg/kg/day
Method: as §3
Moreover, DK45 at 5 mg/kg/day reduced serum free fatty acid (FIG. 7), cholesterol (FIG. 8), and triglyceride levels (FIG. 9) of non-fasting treatments.

activity of GAL-hERRα on reporter construct UASgx4-TK-Luc (GAL-hERRα)	SMILES	PGC1α-promoter reporter gene driven by ERRα [1]	PDK4-promoter reporter gene driven by ERRα [2]	area under the curve of the oral glucose tolerance test (high-fat-diet mice [3])	blood glucose levels, non-fasting (high-fat-diet mice [4])	area under the curve of the insulin resistance test (high-fat-diet mice [5])	blood insulin levels of non-fasting treatments (high-fat-diet mice [6])	serum free fatty acid (high-fat-diet mice [7]; non-fasting (FIG. 7))	serum cholesterol (high-fat-diet mice [7]; non-fasting (FIG. 8))	serum triglyceride levels (high-fat-diet mice [7]; non-fasting (FIG. 9))
dose-dependently enhances	COc1ccn2c(=O)cc(-c3ccccc3)nc2c1 [DK36, 8-methoxy-2-phenyl-4H-pyrido[1,2-a]pyrimidin-4-one]	–	–	–	–	–	–	–	–	–
dose-dependently enhances	CC(C)Oc1ccn2c(=O)cc(-c3ccccc3)nc2c1 [DK41, 8-isopropoxy-2-phenyl-4H-pyrido[1,2-a]pyrimidin-4-one]	–	–	–	–	–	–	–	–	–
dose-dependently enhances	CCc1ccn2c(=O)cc(-c3ccccc3)nc2c1 [DK45, 8-ethyl-2-phenyl-4H-pyrido[1,2-a]pyrimidin-4-one]	enhancement	enhancement	reduced	reduced	reduced	reduced	reduced	reduced	reduced
